Measured values from publication PMC12254266, “Multicolored sequential resonance energy transfer for detection of simultaneous ligand binding at G protein-coupled receptors” (Nature Communications, 2025).
Where “and” joins values, the source holds several entries; their conditions need not be identical. Identical values can stand only once. Like-named read-outs stand apart in the source and are kept apart here.

How the values were obtained:
FFA1-Nluc = FFA1-Nluc (Homo sapiens, UniProt O14842); assay: NanoBRET binding (saturation, kinetics) at C terminal Nluc tagged FFA1; design: expressed in transfected cells; details: for Specific BRET (%): Sup Fig 7B; for Kd / BMax, saturation BRET binding: FFA1-Nluc, 95% confidence interval in parentheses; for Kd: read-out: Kd, saturation BRET binding; for BMax, saturation BRET binding: specific BRET
FFA1-Nluc, sequence (O14842 whole entry): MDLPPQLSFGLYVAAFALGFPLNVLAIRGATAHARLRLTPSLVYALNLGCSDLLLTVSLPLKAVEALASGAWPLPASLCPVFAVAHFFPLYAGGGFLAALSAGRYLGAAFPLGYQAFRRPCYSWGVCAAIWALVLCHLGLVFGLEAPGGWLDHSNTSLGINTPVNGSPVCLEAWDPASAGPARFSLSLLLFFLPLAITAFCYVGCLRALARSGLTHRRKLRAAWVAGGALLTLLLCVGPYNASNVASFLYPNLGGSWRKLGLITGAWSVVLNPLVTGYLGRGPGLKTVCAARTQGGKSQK
Procedure: (§1) Nluc-FFA1 or FFA1-Nluc Flp-In T-REx 293 cells were plated at 50,000 cells per well in poly-D-lysine coated white 96-well plates. Cells were cultured for 24 h in the plate before medium was replaced with medium containing 100 ng/mL of doxycycline to induce receptor expression. After culturing for a further 24 h, medium was removed, cells were washed with HBSS and incubated in HBSS for 30 min. To start the assay, NanoGlo substrate (Promega, N1110) was added to the cells at a 1:800 final dilution and incubated for 10 min at 37 °C. For endpoint assays, including both saturation and competition binding, test ligands were then added, including both fluorescent and unlabelled competing ligands as indicated, and plates incubated for a further 5 min at 37 °C. NanoBRET was then quantified in a CLARIOstar microplate reader (BMG Labtech) by measuring luminescent emission with the monochrometer set for the Nluc donor at 450–60 nm, and acceptor luminescent emission 540–60 nm (NBD), 600–80 nm (Cy3.5) or 690–100 nm (SulfoCy5), depending on which fluorophore was being tested. The acceptor/donor BRET ratio was then taken as a measure of fluorophore binding. For kinetic on then off NanoBRET experiments plates were washed the same way and substrate was added to the same concentration. However, 10 min after substrate was added plates were inserted into the CLARIOstar microplate reader set to 25 °C to take repeated measurements of luminescent emission for both the donor and the acceptor fluorophore being used. After 5 min of background measurements, the indicated concentration of fluorescent ligand was added using the plate reader injector and luminescent emission was monitored for ~10 min before the reader was paused to manually add a high concentration of appropriate competing ligand to initiate dissociation. The plate was returned to the reader and luminescence measurements were continued for a further 30 min to monitor dissociation of the fluorescent ligand. For kinetic experiments using multiple concentrations of fluorescent ligand, cells were placed in the plate reader immediately after the addition of Nano-Glo substrate and luminescent measurements were taken. After 5 min, the reader was paused to add the indicated concentrations of fluorescent ligand, before measurements were continued. To set non-specific binding for kinetic experiments, the indicated competing ligand was added 5 min before the addition of the fluorescent ligand.

Nluc-FFA1 [1] = target: T1, Nluc-FFA1 (Homo sapiens, UniProt O14842); assay: NanoBRET binding (saturation, competition, kinetics) at N terminal Nluc tagged FFA1
T1 construct: expressed in transfected cells
T1 sequence (O14842 whole entry): as above
Procedure: as §1

FFA1 = FFA1 (Homo sapiens, UniProt O14842); assay: Ca2+ mobilisation (Fura2) in Flp-In T-REx 293 cells expressing Nluc-FFA1, FFA1-Nluc or untagged FFA1; format: cell-based; design: expressed in transfected cells
FFA1, sequence (O14842 whole entry): as above
Procedure: Nluc-FFA1, FFA1-Nluc or untagged FFA1 Flp-In T-REx 293 cells were plated at 50,000 cells per well in poly-D-lysine coated black clear bottom 96-well plates. Cells were then cultured for 24 h until reaching confluency before culture medium was replaced with medium containing 100 ng/mL of doxycycline to induce receptor expression. Cells were cultured for a further 24 h before the assay. On the day of the assay culture medium was removed and replaced with medium containing 3 μM Fura2-AM Ca^2+ dye. […] Fura2 fluorescent emission at 520 nm following excitation with each of 340 and 380 nm was measured in regular intervals both before and after adding test compounds for a total of 90 s per well. Calcium responses were determined by taking the peak 340/380 ratio after first subtracting the ratios obtained prior to addition of test compound.

Nluc-FFA1 [2] = target: T1, Nluc-FFA1; assay: DISCo-BRET with TUG-2591 and TUG-2597 at N terminal Nluc tagged FFA1; format: binding; details: Figure 3F, 10 nM, technical duplicate
Procedure: Nluc-FFA1 or FFA1-Nluc Flp-In T-REx 293 cells were plated at 50,000 cells per well in poly-D-lysine coated white 96-well plates. Cells were cultured for 24 h in the plate before medium was replaced with medium containing 100 ng/mL of doxycycline to induce receptor expression. After culturing for a further 24 h, culture medium was removed, cells washed with HBSS and incubated in HBSS for 30 min. For all DISCo-BRET formats Nano-Glo substrate was then added at a 1:800 final dilution and cells incubated for 10 min. Following substrate addition experimental set up different among the three formats: endpoint, spectra scan, and kinetics.
For endpoint experiments all fluorescent and unlabelled ligands were added to the cells and incubated for 5 min at 37 °C. Luminescent emission was then measured using a CLARIOstar microplate reader with monochromator set at 450–60 nm (Nluc), 540−60 nm (NBD) and 690–100 nm (SulfoCy5). BRET ratios were then calculated as either SulfoCy5 emission divided by NBD emission, SulfoCy5 emission divided by Nluc emission, or NBD emission divided by Nluc emission.
For spectra scan experiments all indicated fluorescent and unlabelled ligands were added to the cells and cells incubated for 5 min at 37 °C. Luminescence emissions were then measured from each well of the plate from 440 nm – 740 nm with a 5 nm resolution using a CLARIOstar microplate. […]

[3] = Nluc-FFA1, 95% confidence interval in parentheses, read-out: Kd, saturation BRET binding
[4] = log[Ligand] -5.5, single technical replicates
[5] = log[Ligand] -6, single technical replicates
[6] = log[Ligand] -6.5, single technical replicates
[7] = log[Ligand] -7, single technical replicates
[8] = log[Ligand] -8, single technical replicates

Structure (SMILES): CCCN1C(=O)c2ccccc2[C@@H](C(=O)O)[C@@H]1c1ccc(OCc2cccc(-c3ccc(OCCOCCNc4ccc([N+](=O)[O-])c5nonc45)cc3C)c2)cc1 [TUG-2884]
- Specific BRET (%) (FFA1-Nluc; [TUG-2884] 1 μM): 60.2367% and 75.4193% and 48.9635% and 51.5087% and 65.0111% and 65.7411%
- Specific BRET (%) (FFA1-Nluc; [TUG-2884] 2 μM): 98.0293% and 80.378% and 57.5363% and 68.9417% and 80.7303% and 88.1476%
- Specific BRET (%) (FFA1-Nluc; [TUG-2884] 4 μM, technical duplicates): 96.6176% and 103.382%
- Kd (Nluc-FFA1 [1]; footnotes of Supplementary Table 3, read-out: Kd values obtained in NanoBRET saturation experiments (used for pKi) (converted)): 940 nM

Structure (SMILES): Cc1cc(OCCOCCNC(=O)CCCCCN2\C(=C/C=C/C=C/C3=[N+](C)c4ccc(S(=O)(=O)[O-])cc4C3(C)C)C(C)(C)c3ccccc32)ccc1-c1cccc(COc2ccc(CCC(=O)O)c(F)c2)c1 [TUG-2355]
- Kd (FFA1-Nluc): 240 nM
- BMax, saturation BRET binding (FFA1-Nluc): 0.022 (0.015−0.038)
- Kd (Nluc-FFA1 [1]; [3]): 520 nM
- Specific BRET (Nluc-FFA1 [1]; Nluc-FFA1, [TUG-2355] 1000 nM, technical triplicates): 0.0476 and 0.0570 and 0.0671 and 0.0472 and 0.0443 and 0.0544
- BMax, saturation BRET binding (Nluc-FFA1 [1]; Nluc-FFA1, specific BRET, 95% confidence interval in parentheses): 0.083 (0.060−0.14)
- pEC50 (FFA1; Ca2+ data, mean±SEM, NR = No response): 5.43±0.06
- Ca2+ Response as a % of T360 Response (FFA1; FFA1-Nluc cells, log[ligand] -7, technical replicates): -1.03% and 4.29% and 0.96%
- Ca2+ Response as a % of T360 Response (FFA1; FFA1-Nluc cells, log[ligand] -7.5, technical replicates): 1.35% and 1.54% and 1.46% and 0.43% and 0.51% and 0.58%
- Ca2+ Response as a % of T360 Response (FFA1; FFA1-Nluc, log[TUG-2355] -5, technical triplicates): 62.07 % of T360 Response and 53.90 % of T360 Response and 49.62 % of T360 Response and 44.94 % of T360 Response and 53.23 % of T360 Response and 56.24 % of T360 Response and 74.69 % of T360 Response and 72.06 % of T360 Response
- Ca2+ Response as a % of T360 Response (FFA1; Nluc-FFA1, log[TUG-2355] -5, technical triplicates): 78.72 % of T360 Response and 80.47 % of T360 Response and 78.90 % of T360 Response and 53.23 % of T360 Response and 56.24 % of T360 Response and 77.92 % of T360 Response and 57.96 % of T360 Response and 82.25 % of T360 Response
- Ca2+ Response as a % of T360 Response (FFA1; Nluc-FFA1 cells, log[ligand] -7, technical replicates): 1.27% and 0.43% and 0.51% and 0.58% and 0.96% and 2.49%
- Ca2+ Response as a % of T360 Response (FFA1; Nluc-FFA1 cells, log[ligand] -7.5, technical replicates): 2.49% (2×) and 2.03%
- Ca2+ Response as a % of T360 Response (FFA1; Nluc-FFA1 cells, log[ligand] -8, technical replicates): 0.05% and 1.00% and 0.97% and 1.13%
- Ca2+ Response as a % of T360 Response (FFA1; log[Ligand] -4.5, single technical replicates): 81.14% and 82.71% and 91.68% and 50.63% and 60.58% and 55.59% and 78.02% and 80.44% and 71.73%
- Ca2+ Response as a % of T360 Response (FFA1; log[Ligand] -5, single technical replicates): 78.72% and 80.47% and 78.90% and 53.23% and 56.24% and 77.92% and 57.96% and 82.25%
- Ca2+ Response as a % of T360 Response (FFA1; [4]): 47.56% and 39.50% and 44.99% and 26.68% and 35.66% and 31.10% and 60.09% and 62.76% and 60.18%
- Ca2+ Response as a % of T360 Response (FFA1; [5]): 6.20% and 5.86% and 4.09% and -1.05% and -0.0134% and -0.48% and -1.46% and 7.50% and -1.37%
- Ca2+ Response as a % of T360 Response (FFA1; [6]): 0.81% and -1.43% and -1.40% and -2.16% and -1.38% and 1.40% and -3.04% and 3.51% and -1.19%
- Ca2+ Response as a % of T360 Response (FFA1; [7]): 1.12% and 1.72% and 2.65% and -2.38% and -2.12% and 0.39% and -2.69% and 2.22% and 0.50%
- Ca2+ Response as a % of T360 Response (FFA1; [8]): -2.32% and 0.08% and 1.34% and 0.25% and -0.22% and -1.88% and -1.89% and 3.89% and -2.52%
- EMax (FFA1; percentage of response to 10 μM T360, NR = No response): 87±10%

Structure (SMILES): Cc1cc(OCCCNC(=O)CCCN2\C(=C/C=C/C=C/C3=[N+](C)c4ccc(S(=O)(=O)[O-])cc4C3(C)C)C(C)(C)c3ccccc32)ccc1-c1cccc(COc2ccc(CCC(=O)O)c(F)c2)c1 [TUG-TUG-2591]
- Area under the curve from luminecent emission, Total (Nluc-FFA1 [2]): 0.1968 and 0.1494 and 0.1776 and 0.1635 and 0.1742 and 0.2754

Structure (SMILES): Cc1cc(OCCOCCNC(=O)CCCCC[N+]2=C(/C=C/C=C3/N(C)c4ccc5ccccc5c4C3(C)C)C(C)(C)c3c2ccc2ccccc32)ccc1-c1cccc(COc2ccc(CCC(=O)O)c(F)c2)c1.O=C([O-])C(F)(F)F [TUG-2287]
- Kd (FFA1-Nluc): 25 nM
- BMax, saturation BRET binding (FFA1-Nluc): 0.007 (0.005−0.01)
- Kd (Nluc-FFA1 [1]; [3]): 200 nM
- activity in Ca2+ assays (FFA1; in words): no measurable activity
- Ca2+ Response as a % of T360 Response (FFA1; [4]): 17.83% and 27.69% and 20.05% and -0.41% and 1.34% and 0.65%
- Ca2+ Response as a % of T360 Response (FFA1; [5]): 5.00% and 8.24% and 2.11% and -0.20% and 0.45% and 0.71%
- Ca2+ Response as a % of T360 Response (FFA1; [6]): 1.48% and 8.34% and 1.53% and -0.18% and -0.52% and -0.47%
- Ca2+ Response as a % of T360 Response (FFA1; [7]): 0.96% and 2.49% and 1.27% and 0.43% and 0.51% and 0.58%
- Ca2+ Response as a % of T360 Response (FFA1; [8]): 2.24% and 3.57% and 0.05% and 1.00% and 0.97% and 1.13%
- Ca2+ Response as a % of T360 Response (FFA1; log[Ligand] -9, single technical replicates): 1.37% and 5.16% and 0.91% and -0.52% and -0.36% and 0.88%
